Results published in patent US5519051A, “Oxa- or azasteroid derivatives” (Teikoku Hormone Mfg. Co., Ltd., priority 1991, dated 1996).

What follows are compounds tested against T1, aromatase (Homo sapiens, UniProt P11511) (assay: aromatase inhibition action (3H2O liberated by aromatization of [1,2-3H] androstenedione, human placental microsome)). Details: freeze-dried human placental microsome 150 μg; 2 μM [1,2-3H] androstenedione; 180 μM NADPH; pH 7.5; 37° C., 20 minutes.
T1 construct: human placental microsome (one obtained by centrifugation at 105,000); from tissue; host or cells: human placenta, microsomes (washed with dithiothreitol, freeze-dried)
T1 sequence (P11511 1-503): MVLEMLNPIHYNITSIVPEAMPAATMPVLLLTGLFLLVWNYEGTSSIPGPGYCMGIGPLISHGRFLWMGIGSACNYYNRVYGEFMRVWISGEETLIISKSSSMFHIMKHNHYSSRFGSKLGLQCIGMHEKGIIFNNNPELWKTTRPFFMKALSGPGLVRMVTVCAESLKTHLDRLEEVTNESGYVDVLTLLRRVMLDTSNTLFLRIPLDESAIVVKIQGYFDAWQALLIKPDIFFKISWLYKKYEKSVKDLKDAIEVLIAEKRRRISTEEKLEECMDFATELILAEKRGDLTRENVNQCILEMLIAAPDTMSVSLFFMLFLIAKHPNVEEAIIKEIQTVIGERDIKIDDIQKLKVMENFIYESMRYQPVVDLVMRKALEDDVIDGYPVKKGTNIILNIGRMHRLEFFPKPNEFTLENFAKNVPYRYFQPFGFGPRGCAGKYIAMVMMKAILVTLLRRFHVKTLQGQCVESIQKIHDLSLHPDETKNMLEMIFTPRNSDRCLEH
Format: biochemical
Experimental: (1) Assay of aromatase inhibition action
According to the method of Ryan (The Journal of Biological Chemistry, 234, 268-272, 1959), human placental microsome (one obtained by centrifugation at 105,000 × g for 60 minutes) was prepared. A microsome was used after being washed twice with 0.5 mM dithiothreitol solution, freeze-driedand stored at -20° C.
Aromatase inhibition action was assayed according to the method developed by Tompson and Siiteri (The Journal of Biological Chemistry, 249, 5373-5378, 1974). The method is to determine the amount of ^3 H2 O liberated by aromatization of [1,2-^3 H] androstenedione. The experiment using the enzyme is carried out in 67 mM phosphate buffer of pH 7.5 so that the amount of the last incubation liquid gets to be 0.5 mi. The incubation liquid contains 180 μM NADPH, 2 μM [1,2-^3 H] androstenedione, 150 μg of the freeze-dried human placental microsome, 25 μl of methanol and a test compound in various concentrations. The incubation is carried out in the air at 37° C. for 20 minutes, 3 ml of chloroform is added to finish the reaction, and then the mixture is stirred for 40 seconds. Then, centrifugation is conducted at 700 × g for 10 minutes, 0.3 ml of the aqueous solution is removed from the supernatant, the scintillation mixture is added, and the amount of ^3 H2 O formed is determined

Compound	IC50
C=C1C[C@@H]2[C@H](CC[C@]3(C)C(=O)OCC[C@@H]23)[C@@]2(C)C=CC(=O)C=C12 [Example 36, 6-methylene-17-oxa-D-homoandrosta-1,4-diene-3,17a-dione]	2100 nM
C[C@]12CC[C@H]3[C@@H](CCC4=C(O)C(=O)CC[C@@]43C)[C@@H]1CCOC2 [Example 56, 4-hydroxy-D-homo-17-oxaandrost-4-en-3-one]	1900 nM
C[C@]12CCC(=O)C(O)=C1CC[C@@H]1[C@@H]2CC[C@]2(C)C(=O)OCC[C@@H]12 [Example 31, 4-hydroxy-D-homo-17-oxaandrost-4-ene-3,17a-dione]	600 nM
C[C@]12CC[C@H]3[C@@H](CC(=O)C4=CC(=O)CC[C@@]43C)[C@@H]1CCOC2 [Example 50, D-homo-17-oxaandrost-4-ene-3,6-dione]	2700 nM
C[C@]12CCCC=C1[C@@H]1[C@H]([C@@H]3[C@@H]2CC[C@]2(C)C(=O)OCC[C@@H]32)C1(F)F [Example 28, 6α,7α-difluoromethylene-D-homo-17-oxaandrost-4-en-17a-one]	1300 nM
C[C@]12CCCC=C1CC[C@@H]1[C@@H]2CC[C@]2(C)C(=O)OCC[C@@H]12 [Example 25, D-homo-17-oxaandrost-4-en-17a-one]	730 nM
C[C@]12CCCC=C1CC[C@@H]1[C@@H]2CC[C@]2(C)C(=O)OC[C@@H]12 [Example 3, 16-oxaandrost-4-en-17-one]	1200 nM
C[C@]12CC[C@H]3[C@@H](C=CC4=CC(=O)C=C[C@@]43C)[C@@H]1CCOC2 [Example 51, D-homo-17-oxaandrosta-1,4,6-trien-3-one]	2900 nM
